The source of these data is publication PMC8284666, “Biochemical characterization of protease activity of Nsp3 from SARS-CoV-2 and its inhibition by nanobodies” (PLoS ONE, 2021).

The subject of experiment [1] is PLpro^CoV-1. The settings on record: read-out: IC50 against PLpro^CoV-1; cited from earlier work.
For experiment [2], the target named is T1, Nsp3^core (Severe acute respiratory syndrome coronavirus 2, UniProt P0DTC1). The class given is biochemical.
The test system of experiment [3] is SARS-CoV-2 PLpro. The conditions noted are these: cited from earlier work.
The target of experiment [4] is PLpro from SARS-CoV-2 (Severe acute respiratory syndrome coronavirus 2, UniProt P0DTC1). In words: biochemical. The settings on record: for inhibition at 10 µM: read-out: percentage inhibition in the HTS.
Experiment [5] relates to panel of 42 human DUBs and the viral ovarian tumor (vOTU). The class given is biochemical. The conditions noted are these: tested at 10 and 1 μM; result in words.
Experiment [6] has as its target T1, Nsp3^core. Put plainly: biochemical.
The target of experiment [7] is SARS-CoV-2 Nsp3 residues 743-1072 (PL-pro), purified, tags removed (SARS-CoV-2, Wuhan-Hu-1 (MN908947.3), UniProt P0DTD1). In words: ITC. The conditions noted are these: both partners purified.
The mark [8] stands for this setting: screened in duplicate at 10 μM, hit criterion.

Read-outs that look alike come from different tables or passages of the source.

By IC50 is commonly meant the midpoint of a concentration-inhibition curve. For the molecule GRL-0617, the IC50 was 600 nM in experiment [1] and around 2000 nM in experiment [3]. Besides, the “inhibition of viral polypeptide (Nsp1-2 FL) cleavage by Nsp3” value in experiment [2] is “able to inhibit cleavage of the viral polypeptide”.

As for `Nc1nc2nc[nH]c2c(=S)[nH]1` [Thioguanine], in experiment [4], inhibition was half-maximal at 4540 nM (IC50).

A word on the inhibition: it is how much of the control response was suppressed. `O=c1sn(-c2cccc3ccccc23)c(=O)n1Cc1ccccc1` [Tideglusib]: in experiment [4], the IC50 was determined as 210 nM and the inhibition at 10 µM was above 50%. Also, the “selectivity / off-target inhibition in the DUB panel” value (“selectivity / off-target inhibition” for short) in experiment [5] is recorded as “inhibited–at different extents–several other human DUBs”. For the same molecule, the IC50 in experiment [6] came out at 1480 nM.

As for Auranofin, the IC50 in experiment [4] (read-out: IC50 against PLpro) and in experiment [6] was around 1000 nM in each case. The “selectivity / off-target inhibition” value in experiment [5] is recorded as “inhibited–at different extents–several other human DUBs”.

With `CC(Cc1ccc(O)c(O)c1)C(C)Cc1ccc(O)c(O)c1` (stereo not shown) [Nordihydroguaiaretic acid], the results for the IC50 in experiment [4] and in experiment [6] were 1060 nM and 1620 nM, respectively. Besides, in experiment [4] (setting [8]), the inhibition at 10 µM was above 50%.

Regarding `CCN(CC)C(=S)SSC(=S)N(CC)CC` [Disulfiram], the IC50 in experiment [4] turned out to be 690 nM; in experiment [6], 660 nM. Further, the inhibition at 10 µM in experiment [4] (setting [8]) is above 50%. For the same molecule, in experiment [5], the “selectivity / off-target inhibition” value is on record as “inhibited–at different extents–several other human DUBs”.

B1: NbSL18, recombinant, purified from bacteria (VHH)
VHH: QVQLQESGGGLVQAGGSLRLSCAASGSIFLPGFMGWYRQAPGKERELVASITPGTTTNYADSVKGRFTISRDNAKNTVYLQMNSLKPEDTAVYYCAAYVFVYRNYWGQGTQVTVSS
By Kd is commonly meant the equilibrium constant for the complex coming apart. On to B1, for which the Kd in experiment [7] was around 500 nM.
